Assay results from patent publication US12037361B2, “Methods for treating multidrug resistant breast cancer” (THE HONG KONG POLYTECHNIC UNIVERSITY, priority 2021, dated 2024).
Residues, ends and D or L forms follow the SMILES beside them.

Columns and labels:
[1] = test system: MCF-7 CSC; assay: Reversal of chemoresistance in MCF-7 CSC (MTS cell viability assay); assay type: cell-based, human
Protocol: (L) Determination of 50% Inhibitory Concentration (IC50) by MTS Assay:
MCF-7 AC and derived cells were seeded onto 96-well plates at a density of 1×10^4 cells per well and treatments of anticancer drugs or peptides were administered accordingly. Following 72-hour incubation at 37° C. with 5% CO2, cell viability was assessed using CellTiter 96 AQueous Non-Radioactive Cell Proliferation Assay (Promega). The IC50 value was estimated from the optical density at 492 nm using GraphPad.

[2] = in vivo; set-up: species or system Balb/c mice; conditions: mouse, iv, 25 mg/kg
Protocol: (M) Pharmacokinetic Study of SHARPIN-Derived Peptides:
SHARPIN-derived peptides powder was dissolved in 1×PBS and administered intravenously at 25 mg/kg to overnight-starved Balb/c mice (n=3). At different time points (5, 15, 30, 60, 120, 240, 420 min), blood was collected via cardiac puncture and placed in a heparinized Eppendorf tube followed by centrifuged at 14,000 rpm for 5 min to obtain blood plasma. Plasma was stored at −80° C. until analysis. Plasma concentration data were analyzed by non-compartmental model. Area under plasma concentration-time curve (AUC), distribution half-life (t1/2α) and elimination half-life (t1/2β) were calculated by PK solution2.0 (Summit Research Service, Ashland, USA).
(O) UPLC/QQQ-MS Analysis Protocol:
Agilent 6460 Ultra Performance Liquid Chromatography-Electrospray Ionization Triple Quadrupole mass spectrometer (UPLC-QQQ-MS) was used in sample separation, peptide detection and quantification. Waters Acquity UPLC BEH Protein C4 column (1.7 μm, 2.1×100 mm) was used for separation. SHARPIN-derived peptides were separated and eluted by a gradient of water (0.1% FA, v/v) and acetonitrile (ACN) (0.1% FA, v/v) at a constant flow rate of 0.3 mL/min. During separation, an elution protocol was used as follows. Equilibration: 0 to 1 min, 5% ACN. Elution gradient: 1 to 10 min, ACN from 5 to 99%. Regeneration: 10 to 11 min, 99% ACN, then 11 to 11.5 min, ACN from 99% to 5%. Re-equilibration: 11.5 to 13 min: 5% acetonitrile. A hundred microlitres of plasma/tumor samples were added with 300 μL acetonitrile (1% formic acid (FA)) for protein and peptide precipitation. […] after centrifugation at 14,000 rpm for 10 minutes. Then the samples were reconstituted in 50% methanol (0.1% FA, v/v), filtered through a 0.22 μm nylon filter, and kept in the autosampler at 4° C. for analysis. Twenty microliters were injected into the MS. The MS was operated in positive electrospray ionization (ESI+) mode with supply of 300° C. gas temperature and sheath gas temperature, 8 L/min drying gas, and 11 L/min sheath gas flow and 3.5 kV capillary voltage. The signals of TAT-SP and DRI-TAT-SP were recorded at m/z 563 to 661 at collision energy (CE) of 15 eV and m/z 569 to 637 at CE of 20 eV, respectively. TAT-SP and DRI-TAT-SP were eluted at 4.05 and 3.86 minutes, respectively.

[3] = test system: MCF7 human breast cancer xenograft; assay: In vivo efficacy study in MCF7 breast cancer xenograft model; conditions: for No. of toxicity death: MCF7 xenograft nude mice, deaths/animals; for tumor volume at end of study: 20 days; for Tumor inhibition (%): 10 injections in 20 days
Protocol: Data obtained are analyzed to evaluate treatment outcomes. Tumor doubling time is calculated using tumor volumes obtained from the end of experiment versus the tumor volumes on the first day of treatment. Tumor inhibition (%) is calculated using the tumor volumes obtained from the end of experiment. Corresponding equations of determining tumor inhibition (T/C) and tumor doubling time (Td) are provided as follows:
(Q) In Vivo Efficacy Study of DRI-TAT-SP Combined with DOX in Treating MCF7 Breast Cancer Xenograft Model:
Six- to eight-week-old female Balb/c nude mice were maintained under specific pathogen-free conditions prior to in vivo efficacy study. Each animal was implanted with a piece of […] pellet 0.72 mg, 60-day release. (Cat No. SE-121, Innovative Research of America, Sarasota, FL). Four days later, the nude mice were inserted at the both flanks with a sesame sized (around 10 mm^3) MCF-7 tumor piece originated from a tumor bulk. When the tumor reached approximately 100 mm^3 (21-28 days), the mice were randomized and administered intravenously with (1) 1×PBS, (2) DOX 1.2 mg/kg, (3) DRI-TAT-SP 25 mg/kg or (4) DOX 1.2 mg/kg+DRI-TAT-SP 25 mg/kg once every 2 days for a total of 10 injections. Tumor volume was measured using digital caliper once every 4 days. Estimated tumor volume (mm^3) was calculated as ½×length (mm)×width (mm)^2. The mouse body weights were recorded once every two days. The tumor doubling time (Td) was calculated as t×log 2/log(Vf/V0), where t, Vf and V0 stand for interval time, percentage change of tumor volume on final day and percentage change of tumor volume on initial day.

[4] = FIG. 7B
Source text: Table printed on a drawing sheet, FIG. 7B
First reader's note: The table is printed as an inset in the plasma level versus time plot of DRI-TAT-SP, and the substance name is taken from the plot axis.

[5] = In vivo toxicity test in Balb/c mice; conditions: healthy Balb/c mice, DOX 1.2 mg/kg i.v. once every two days, 10 injections
Protocol: (P) In Vivo Toxicity Test in Balb/c Mice:
Healthy female Balb/c mice (6-8 weeks old) were randomized into 3 groups and were administered with (1) DOX 1.2 mg/kg i.v., (2) DRI-TAT-SP 25 mg/kg i.v, and (3) DOX 1.2 mg/kg+DRI-TAT-SP 25 mg/kg i.v. once every two days (q2d) for 10 injections via tail vein injection. The body weight of the mice was measured once every 2 days. Any toxicity symptoms including body weight change and behavioral changes will be monitored.

[6] = molecular target: T1, ITGA2/CRT interaction (Homo sapiens, UniProt P17301); assay: Co-immunoprecipitation with anti-CRT antibody: competition with CRT for KXGFFKR motif of ITGA2; assay type: binding; conditions: CSC lysate immunoprecipitated with anti-CRT antibody; TAT peptides at 1 μM for 24 hours
T1 construct: endogenous in cells; host or cells: MCF-7-derived cells (lysate)
Protocol: Calreticulin (CRT) from MCF-7-derived cells was immunoprecipitated by anti-CRT (CST) antibody. In brief, MCF-7-derived cells, with or without 24-hour incubation of 1 μM TAT-SP or TAT-SPScr, were collected and subsequently lysed with RIPA buffer on ice for 30 minutes. The lysate was diluted 5-fold with PBS and incubated with anti-CRT antibody overnight at 4° C. with simultaneous mixing on a rotating platform, followed by further incubation of Protein-G PLUS agarose (Santa Cruz Biotechnology) at 4° C. for at least 2 hours.
After incubation, agarose beads were centrifuged and washed by PBS. Immunoprecipitated proteins were collected by treating the beads with 0.2 M glycine and subjected to Western Blotting (WB) analysis.

[7] = test system: Akt pathway; assay: Western blotting of p-Akt (T308) in CSCs; assay type: cell-based, human; conditions: 1 μM peptide for 24 hours
Protocol: (K) Protein Preparation and Western Blotting:
Total protein was extracted with RIPA buffer supplied with protease inhibitor (Roche), resolved in 10% SDS-PAGE and transferred onto Immobilon-P PVDF membrane (Millipore). Membranes were blocked with 5% non-fat dry milk in Tris-buffered saline with 0.1% Tween (TBST) for 2 hours, then were incubated overnight with corresponding antibodies at 4° C., followed by incubation with horseradish peroxidase-conjugated goat anti-mouse IgG (Santa Cruz Biotechnology) or goat anti-rabbit IgG (Santa Cruz Biotechnology) as appropriate, for 2 hours at room temperature in TBST. Antibody binding was detected with Pierce ECL Western Blotting Substrate (Thermo Scientific) and images were visualized with Azure C600 imaging system (Azure Biosystems). The antibodies used were anti-ITGA2 (Abcam), anti-CRT (CST), anti-ILR2 (CST), anti-MRP1/ABCC1 (CST), anti-Mdr-1 (Santa Cruz Biotechnology), anti-Akt (pan) (CST), anti-pAkt (S473) (CST), anti-pAkt (T308) (CST), p53 (Santa Cruz Biotechnology) and anti-β-actin (Santa Cruz Biotechnology).

[8] = test system: MRP1; assay: DOX accumulation assay in CSCs; assay type: cell-based, human; conditions: 5 μM DOX, 1 μM peptide for 24 hours
Protocol: (I) DOX Accumulation Assay:
To assess MRP1 activity, 2×10^5 MCF-7 AC and derived cells, with or without 24-hour incubation of 1 μM TAT-SP or TAT-SPScr, were treated with 5 μM DOX at 37° C. for 2 hours. After removal of extracellular drugs, cells were divided into two equal halves. One half was lysed with lysis buffer (isopropanol with 0.75 M HCl and 0.2% Triton X-100) at room temperature for 30 minutes; the other half was incubated with 5 μM CMFDA (Invitrogen) in darkness at room temperature for 30 minutes. The fluorescent intensities of drugs and dyes were detected with CLARIOstar (BMG LABTECH) and relative drug concentrations were normalized to CMFDA level.

[9] = test system: CSCs; assay: Annexin V apoptosis assay by flow cytometry in CSCs; assay type: cell-based, human; conditions: 1 μM DOX for 24 hours, 1 μM peptide
Protocol: (F) Flow Cytometry Analysis:
Cells were detached by Phosphate buffered saline (PBS) with 2.5 mM EDTA and washed with PBS. For determining CSC population, a total of 1×10^6 cells were incubated with APC-CD44 (BD Biosciences) and PE-CD24 (BD Biosciences) in FACS solution (PBS with 1% BSA and 1 mM EDTA) for 30 minutes on ice. APC-IgG2 (BD Biosciences) and PE-IgG2 (BD Biosciences) were used as isotype controls. For determining apoptotic population, a total of 1×10^6 cells were first treated with or without 1 μM DOX for 24 hours, in the absence or presence of 1 μM TAT-SP or TAT-SPScr, followed by incubation with FITC-Annexin V (BD Biosciences) and propidium iodide (PI) in binding buffer (10 mM Hepes, pH 7.4, 140 mM NaCl and 2.5 mM CaCl2) for 30 minutes on ice as per the manufacturer's instructions. For determining CRT surface localization, a total of 1×10^6 cells, treated with or without 1 μM DOX for 24 hours, were incubated with anti-CRT antibody (1:800, CST) in PBS with 3% BSA for 1 hour on ice. After washing with PBS, cells were further incubated with 2 μg/mL goat anti-rabbit Alexa Fluor 488 (Invitrogen) for 45 minutes on ice. Fluorescence signals were analyzed by BD Accuri C6 flow cytometer (BD Biosciences).

[10] = MCF7 xenograft, DOX 1.2 mg/kg, DRI-TAT-SP 25 mg/kg
[11] = MCF7 xenograft, i.v. once every 2 days, DOX 1.2 mg/kg, DRI-TAT-SP 25 mg/kg

T1 sequence (P17301 30-1181): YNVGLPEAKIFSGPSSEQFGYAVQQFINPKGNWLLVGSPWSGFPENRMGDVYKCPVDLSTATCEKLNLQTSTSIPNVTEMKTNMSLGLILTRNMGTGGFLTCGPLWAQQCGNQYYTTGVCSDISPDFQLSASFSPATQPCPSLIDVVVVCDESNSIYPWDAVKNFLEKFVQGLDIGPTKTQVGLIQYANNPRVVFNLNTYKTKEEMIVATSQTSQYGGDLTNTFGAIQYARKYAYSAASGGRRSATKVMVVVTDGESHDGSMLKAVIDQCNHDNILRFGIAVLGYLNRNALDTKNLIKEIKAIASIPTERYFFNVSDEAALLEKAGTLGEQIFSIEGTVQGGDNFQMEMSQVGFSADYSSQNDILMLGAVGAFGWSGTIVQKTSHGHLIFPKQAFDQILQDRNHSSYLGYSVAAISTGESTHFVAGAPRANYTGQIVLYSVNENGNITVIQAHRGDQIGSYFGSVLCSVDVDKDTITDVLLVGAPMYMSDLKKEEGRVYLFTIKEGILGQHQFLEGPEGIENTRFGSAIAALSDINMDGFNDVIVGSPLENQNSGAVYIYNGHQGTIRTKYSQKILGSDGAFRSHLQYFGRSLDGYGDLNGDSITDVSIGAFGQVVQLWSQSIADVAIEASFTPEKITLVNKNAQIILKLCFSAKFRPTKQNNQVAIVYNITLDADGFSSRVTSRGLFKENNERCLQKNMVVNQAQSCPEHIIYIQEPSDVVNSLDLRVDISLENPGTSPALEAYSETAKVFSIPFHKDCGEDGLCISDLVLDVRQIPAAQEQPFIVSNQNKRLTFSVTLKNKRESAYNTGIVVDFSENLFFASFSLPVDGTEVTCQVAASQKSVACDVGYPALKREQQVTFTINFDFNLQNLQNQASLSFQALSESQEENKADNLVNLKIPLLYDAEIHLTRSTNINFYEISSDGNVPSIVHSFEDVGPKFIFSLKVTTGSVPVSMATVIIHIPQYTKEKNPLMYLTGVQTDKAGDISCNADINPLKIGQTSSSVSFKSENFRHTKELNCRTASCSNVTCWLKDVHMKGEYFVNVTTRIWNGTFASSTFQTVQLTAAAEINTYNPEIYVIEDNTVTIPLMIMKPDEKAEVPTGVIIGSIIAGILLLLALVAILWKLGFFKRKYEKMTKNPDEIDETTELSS
T1 sequence (P05556 21-798 partner): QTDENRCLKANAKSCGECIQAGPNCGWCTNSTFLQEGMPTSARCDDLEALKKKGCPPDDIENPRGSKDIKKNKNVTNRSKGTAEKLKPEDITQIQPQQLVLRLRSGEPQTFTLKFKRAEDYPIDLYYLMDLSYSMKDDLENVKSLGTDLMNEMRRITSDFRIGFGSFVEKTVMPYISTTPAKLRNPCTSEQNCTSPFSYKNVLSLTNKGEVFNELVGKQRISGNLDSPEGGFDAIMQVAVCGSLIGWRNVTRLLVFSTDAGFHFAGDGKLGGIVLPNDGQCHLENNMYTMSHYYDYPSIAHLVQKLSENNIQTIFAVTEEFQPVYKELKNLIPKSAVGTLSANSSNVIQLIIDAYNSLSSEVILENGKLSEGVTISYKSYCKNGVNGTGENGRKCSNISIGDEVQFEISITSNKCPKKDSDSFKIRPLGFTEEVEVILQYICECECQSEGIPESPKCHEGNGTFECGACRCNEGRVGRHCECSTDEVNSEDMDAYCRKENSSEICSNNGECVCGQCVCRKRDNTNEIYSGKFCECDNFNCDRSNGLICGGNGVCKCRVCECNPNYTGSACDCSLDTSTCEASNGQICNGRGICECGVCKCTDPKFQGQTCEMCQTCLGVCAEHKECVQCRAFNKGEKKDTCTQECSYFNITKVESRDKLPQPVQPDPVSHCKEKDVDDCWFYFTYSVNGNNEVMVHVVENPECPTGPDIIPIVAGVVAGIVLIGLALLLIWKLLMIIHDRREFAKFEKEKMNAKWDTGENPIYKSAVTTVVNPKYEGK

CC[C@@H](C)[C@@H](NC(=O)CNC(=O)[C@@H](CCCNC(=N)N)NC(=O)[C@@H](CS)NC(=O)[C@@H](CC(C)C)NC(=O)[C@@H](CS)NC(=O)[C@H](NC(=O)[C@H]1CCCN1C(=O)[C@@H](CCC(=O)O)NC(=O)[C@@H](CCCNC(=N)N)NC(C)=O)C(C)C)C(=O)N[C@@H](C(=O)N[C@H](Cc1c[nH]c2ccccc12)C(=O)N[C@H](CCCNC(=N)N)C(=O)N[C@H](CCC(N)=O)C(=O)N[C@@H](C(=O)N[C@H](C)C(=O)N1CCC[C@@H]1C(=O)N1CCC[C@@H]1C(=O)N[C@H](Cc1ccccc1)C(=O)NCC(=O)N[C@H](CC(C)C)C(=O)N[C@H](CCC(=O)O)C(=O)N[C@H](CO)C(=O)N[C@H](CCCNC(=N)N)C(=O)N[C@H](CCCNC(=N)N)C(=O)N[C@H](CCCNC(=N)N)C(=O)N[C@H](CCC(N)=O)C(=O)N[C@H](CCCNC(=N)N)C(=O)N[C@H](CCCNC(=N)N)C(=O)N[C@H](CCCCN)C(=O)N[C@H](CCCCN)C(=O)N[C@H](CCCNC(=N)N)C(N)=O)C(C)C)C(C)C [DRI-TAT-SP, Ac-repvclcrgivwrqvappfglesrrrqrrkkr-NH2] (HELM PEPTIDE1{[ac].[dR].[dE].[dP].[dV].[dC].[dL].[dC].[dR].G.[dI].[dV].[dW].[dR].[dQ].[dV].[dA].[dP].[dP].[dF].G.[dL].[dE].[dS].[dR].[dR].[dR].[dQ].[dR].[dR].[dK].[dK].[dR].[am]}$$$$V2.0)
EC50 ([1]; MCF-7 breast CSCs, in the presence of DOX, 72-hour incubation, read-out: EC50 of reversing chemoresistance in the presence of DOX (DOX-EC50)): 2300 ± 400 nM
Cmax ([2]; Balb/c): 870 ng/mL
half-life ([2]; Balb/c, distribution half-life t1/2α): 0.265 h
half-life ([2]; Balb/c, elimination half-life t1/2β): 7.37 h
time of Cmax post administration [2]: 5 min
No. of toxicity death [3]: 0/6
tumor volume at end of study [3, 10]: 325±135 mm^3
Tumor inhibition (%) [3, 11]: 10.1%
Tumor doubling time ([3]; MCF7 xenograft, i.v. once every 2 days, 10 injections, DOX 1.2 mg/kg, DRI-TAT-SP 25 mg/kg): 12.9 days
AUC(0-obs) | ng-min/mL [4]: 118,010 ng-min/mL

COc1cccc2c1C(=O)c1c(O)c3c(c(O)c1C2=O)C[C@@](O)(C(=O)CO)C[C@@H]3O[C@H]1C[C@H](N)[C@H](O)[C@H](C)O1 [Doxorubicin, reference compound]
body weight change [5]: +0.6±2.4%
No. of toxicity death [3]: 0/8
tumor volume at end of study [3, 10]: 270±73 mm^3
Tumor inhibition (%) [3, 11]: 21.5%

RKKRRQRRRSELGFPPAVQRWVIGRCLCVPER [TAT-SP]
modulation of CSC chemoresistance with respect to DOX, PTX and VCR ([1]; CSCs, DOX, PTX and VCR IC50 (FIG. 5D)): able to modulate CSC chemoresistance
competition with CRT for the KXGFFKR motif / inhibition of immunoprecipitation of ITGA2 [6]: compete with CRT
activation of Akt pathway by ITGA2 (p-Akt T308) [7]: inhibits the activation of Akt pathway
DOX accumulation [8]: high level of DOX accumulation
DOX-induced apoptosis [9]: leaves CSCs unprotected from DOX-induced apoptosis

SELGFPPAVQRWVIGRCLCVPER [SP, peptide derived from the UBL domain of SHARPIN (residues 259-281)]
competition with CRT for the KXGFFKR motif / inhibition of immunoprecipitation of ITGA2 [6]: compete with CRT
